# Experimental data taken from patent US7320996B2, “Indolinone protein kinase inhibitors and cyclooxygenase inhibitors for use in combination therapy for the treatment of cancer” (Sugen, Inc, priority 2001, dated 2008).
# Tests used:
# EGFR (A431 cell lysate) = target: T1, EGFR (A431 cell lysate) (Homo sapiens, UniProt P00533); test: EGFR bioassay, ELISA; type: biochemical; details: read-out: bio EGF IC50
# T1 construct: A431 cell lysate (SUGEN, Inc.); host or cells: A431
# GST-Flk1 = target: T2, GST-Flk1 (Mus musculus, UniProt P35918); test: GST-FLK-1 bioassay (bio flkGST), ELISA; type: biochemical
# T2 construct: GST-Flk1cd purified from sf9 recombinant baculovirus transformation (SUGEN, Inc.); host or cells: Sf9 (baculovirus)
# [1] = target: T3, PDGFR-β (NIH 3T3 cell lysate) (Homo sapiens, UniProt P09619); test: PDGFR bioassay, ELISA; type: biochemical; details: read-out: bio PDGF IC50
# T3 construct: host or cells: NIH 3T3
# [2] = target: T4, HER-2 kinase (EGFr/HER-2 chimera/3T3-C7 cell line) (Homo sapiens, UniProt P04626); test: Cellular HER-2 kinase assay, whole-cell ELISA; type: cell-based; details: read-out: Her2 Kinase IC50
# T4 construct: fused on or other part: EGFR extracellular part, stimulated by EGF and captured by the anti-EGFR antibody SUMO1; P00533 (Epidermal growth factor receptor)
# human cdk2/cyclin A = target: T5, human cdk2/cyclin A (Homo sapiens, UniProt P24941); test: CDK2/cyclin A scintillation proximity assay (cdk2spa); type: biochemical; details: read-out: cdk2spa C50
# T5 construct: host or cells: Sf9
# T2 sequence (P35918 784-1345 limits assumed): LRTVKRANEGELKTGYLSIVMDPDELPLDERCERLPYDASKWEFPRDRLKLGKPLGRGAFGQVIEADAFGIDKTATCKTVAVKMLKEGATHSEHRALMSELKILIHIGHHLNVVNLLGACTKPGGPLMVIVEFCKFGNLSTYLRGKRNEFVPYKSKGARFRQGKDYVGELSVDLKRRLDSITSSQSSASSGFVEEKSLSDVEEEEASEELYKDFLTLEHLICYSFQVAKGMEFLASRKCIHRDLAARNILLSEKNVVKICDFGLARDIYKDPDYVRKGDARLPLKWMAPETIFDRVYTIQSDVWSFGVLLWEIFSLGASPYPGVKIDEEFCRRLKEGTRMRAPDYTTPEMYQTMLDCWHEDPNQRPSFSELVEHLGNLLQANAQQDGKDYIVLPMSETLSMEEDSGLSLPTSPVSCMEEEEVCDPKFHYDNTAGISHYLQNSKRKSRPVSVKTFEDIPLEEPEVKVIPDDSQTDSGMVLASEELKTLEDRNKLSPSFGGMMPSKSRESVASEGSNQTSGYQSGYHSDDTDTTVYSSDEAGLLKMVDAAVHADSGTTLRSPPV
# T1 sequence (P00533 25-1210): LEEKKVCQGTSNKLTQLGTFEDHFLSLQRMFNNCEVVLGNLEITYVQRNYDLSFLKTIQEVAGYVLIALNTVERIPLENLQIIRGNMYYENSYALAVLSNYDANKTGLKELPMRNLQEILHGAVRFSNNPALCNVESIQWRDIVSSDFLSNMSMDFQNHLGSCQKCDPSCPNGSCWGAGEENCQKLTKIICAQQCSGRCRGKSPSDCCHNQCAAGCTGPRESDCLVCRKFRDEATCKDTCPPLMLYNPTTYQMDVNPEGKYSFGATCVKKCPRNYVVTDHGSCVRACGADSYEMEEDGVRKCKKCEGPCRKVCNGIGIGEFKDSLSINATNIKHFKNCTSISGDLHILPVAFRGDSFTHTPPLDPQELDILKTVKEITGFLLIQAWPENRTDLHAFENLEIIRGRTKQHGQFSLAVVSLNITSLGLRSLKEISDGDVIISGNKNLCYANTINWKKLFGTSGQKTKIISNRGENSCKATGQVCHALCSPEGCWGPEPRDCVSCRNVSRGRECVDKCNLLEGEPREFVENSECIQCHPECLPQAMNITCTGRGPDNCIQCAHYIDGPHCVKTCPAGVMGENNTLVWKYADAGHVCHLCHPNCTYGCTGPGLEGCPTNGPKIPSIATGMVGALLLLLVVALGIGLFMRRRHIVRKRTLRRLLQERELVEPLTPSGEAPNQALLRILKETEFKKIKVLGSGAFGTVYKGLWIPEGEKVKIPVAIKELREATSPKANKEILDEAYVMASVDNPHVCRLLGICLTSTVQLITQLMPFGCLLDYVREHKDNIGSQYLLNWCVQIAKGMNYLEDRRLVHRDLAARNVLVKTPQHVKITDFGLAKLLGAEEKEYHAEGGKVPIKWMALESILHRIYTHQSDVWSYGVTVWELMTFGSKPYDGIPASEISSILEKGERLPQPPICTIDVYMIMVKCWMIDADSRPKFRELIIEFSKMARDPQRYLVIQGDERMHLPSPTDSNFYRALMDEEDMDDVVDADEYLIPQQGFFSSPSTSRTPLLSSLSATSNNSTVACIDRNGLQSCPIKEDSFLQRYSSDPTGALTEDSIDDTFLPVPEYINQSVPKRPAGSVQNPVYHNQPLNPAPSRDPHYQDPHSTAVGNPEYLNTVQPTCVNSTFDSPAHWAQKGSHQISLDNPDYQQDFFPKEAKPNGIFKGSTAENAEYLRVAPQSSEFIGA
# T3 sequence (P09619 33-1106): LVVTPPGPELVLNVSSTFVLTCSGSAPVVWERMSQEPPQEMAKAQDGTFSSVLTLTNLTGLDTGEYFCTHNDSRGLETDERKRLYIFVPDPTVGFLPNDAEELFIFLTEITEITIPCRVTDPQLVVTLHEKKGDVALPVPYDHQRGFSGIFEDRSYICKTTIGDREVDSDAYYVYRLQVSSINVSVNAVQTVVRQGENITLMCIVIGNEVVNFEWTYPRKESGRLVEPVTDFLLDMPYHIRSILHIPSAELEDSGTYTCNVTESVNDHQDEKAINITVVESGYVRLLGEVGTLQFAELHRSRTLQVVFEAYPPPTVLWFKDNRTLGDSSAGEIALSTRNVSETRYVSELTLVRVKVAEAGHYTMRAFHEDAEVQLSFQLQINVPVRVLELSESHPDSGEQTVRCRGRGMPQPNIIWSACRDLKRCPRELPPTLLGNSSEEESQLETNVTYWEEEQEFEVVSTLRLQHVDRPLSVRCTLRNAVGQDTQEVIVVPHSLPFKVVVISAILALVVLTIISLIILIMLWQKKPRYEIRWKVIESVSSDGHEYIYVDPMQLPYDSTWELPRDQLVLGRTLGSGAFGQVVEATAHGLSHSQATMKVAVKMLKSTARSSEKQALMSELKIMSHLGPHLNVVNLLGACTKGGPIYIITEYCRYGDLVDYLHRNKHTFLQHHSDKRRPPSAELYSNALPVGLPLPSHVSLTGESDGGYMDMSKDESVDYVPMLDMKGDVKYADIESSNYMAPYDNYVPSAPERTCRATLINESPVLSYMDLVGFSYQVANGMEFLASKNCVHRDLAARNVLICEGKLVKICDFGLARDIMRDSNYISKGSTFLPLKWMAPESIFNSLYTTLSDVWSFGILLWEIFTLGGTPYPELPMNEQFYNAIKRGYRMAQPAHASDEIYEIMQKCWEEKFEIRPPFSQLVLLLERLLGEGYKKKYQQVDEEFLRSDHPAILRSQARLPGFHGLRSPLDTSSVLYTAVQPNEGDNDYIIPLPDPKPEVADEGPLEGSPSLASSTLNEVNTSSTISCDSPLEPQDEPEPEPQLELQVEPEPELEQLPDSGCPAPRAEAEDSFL
# T4 sequence (P04626 720-987 limits assumed, change not shown): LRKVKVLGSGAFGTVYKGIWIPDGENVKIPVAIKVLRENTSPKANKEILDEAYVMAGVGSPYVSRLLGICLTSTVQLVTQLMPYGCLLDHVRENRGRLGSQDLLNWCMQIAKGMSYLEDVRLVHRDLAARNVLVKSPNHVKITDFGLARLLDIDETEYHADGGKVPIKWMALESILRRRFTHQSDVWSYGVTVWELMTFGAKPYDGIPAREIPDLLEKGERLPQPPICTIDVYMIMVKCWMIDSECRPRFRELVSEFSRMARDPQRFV
SMILES,IC50 (EGFR (A431 cell lysate)) [µM],IC50 (GST-Flk1) [µM],IC50 [1] [µM],IC50 [2] [µM],IC50 (human cdk2/cyclin A) [µM]
"COc1ccccc1-c1ccc2c(c1)NC(=O)/C2=C\c1[nH]c(C)c(C(=O)NCCN2CCCC2)c1-c1ccccc1 [Example 43, 5-[6-(2-Methoxyphenyl)-2-oxo-1,2-dihydroindol-3-ylidenemethyl]-2-methyl-4-phenyl-1H-pyrrole-3-carboxylic Acid (2-pyrrolidin-1-ylethyl)amide]",> 100,–,–,–,–
"CCN(CC)CCNC(=O)c1c(C)[nH]c(/C=C2\C(=O)Nc3ccc(S(=O)(=O)N(C)C)cc32)c1C [Example 87, 5-(5-Dimethylsulfamoyl-2-oxo-1,2-dihydroindol-3-ylidenemethyl)-2,4-dimethyl-1H-pyrrole-3-carboxylic Acid (2-diethylaminoethyl)amide]",> 100,–,–,–,–
"Cc1[nH]c(/C=C2\C(=O)Nc3ccc(S(=O)(=O)Nc4ccccc4)cc32)c(C)c1C(=O)N1CCN(C)CC1 [Example 86, 3-[3,5-Dimethyl-4-(4-methylpiperazine-1-carbonyl)-1H-pyrrol-2-ylmethylene]-2-oxo-2,3-dihydro-1H-indole-5-sulfonic Acid Phenylamide]",–,–,–,> 100,–
"CCN(CC)CCCNC(=O)c1[nH]c(/C=C2\C(=O)Nc3cc(OC)ccc32)cc1C [Example 16, 5-(6-Methoxy-2-oxo-1,2-dihydroindol-3-ylidenemethyl)-3-methyl-1H-pyrrole-2-carboxylic Acid (3-diethylamino-propyl)amide]",> 100,> 20,–,–,–
"COc1ccccc1-c1ccc2c(c1)NC(=O)/C2=C\c1[nH]c(C)c(C(=O)NCCN(C)C)c1C [Example 54, 5-[6-(2-Methoxyphenyl)-2-oxo-1,2-dihydroindol-3-ylidenemethyl]-2,4-dimethyl-1H-pyrrole-3-carboxylic Acid (2-dimethylaminoethyl)amide]",–,–,< 0.78,–,–
"CCOC(=O)CNC(=O)c1c[nH]c(/C=C2\C(=O)Nc3ccc(S(=O)(=O)NC)cc32)c1C [Example 117, {[4-Methyl-5-(5-methylsulfamoyl-2-oxo-1,2-dihydro-indol-3-ylidenemethyl)-1H-pyrrole-3-carbonyl]-amino}-acetic Acid Ethyl Ester]",> 100,–,–,> 100,–
"CCN(CC)CCCNC(=O)c1c(C)[nH]c(/C=C2\C(=O)Nc3cccc(C(=O)Nc4ccc(OC)c(Cl)c4)c32)c1C [Example 69, 3-[4-(3-Diethylaminopropylcarbamoyl)-3,5-dimethyl-1H-pyrrol-2-ylmethylene]-2-oxo-2,3-dihydro-1H-indole-4-carboxylic Acid (3-chloro-4-methoxyphenyl)amide]",> 100,–,–,> 100,–
"CCN(CC)CCCNC(=O)c1c(C)[nH]c(/C=C2\C(=O)Nc3cc(-c4ccccc4)ccc32)c1C [Example 68, 2,4-Dimethyl-5-(2-oxo-6-phenyl-1,2-dihydroindol-3-ylidenemethyl)-1H-pyrrole-3-carboxylic Acid (3-diethylaminopropyl)amide]",> 100,–,–,–,–
"CNS(=O)(=O)c1ccc2c(c1)/C(=C/c1[nH]cc(C(=O)NCC(=O)O)c1C)C(=O)N2 [Example 118, {[4-Methyl-5-(5-methylsulfamoyl-2-oxo-1,2-dihydro-indol-3-ylidenemethyl)-1H-pyrrole-3-carbonyl]-amino}-acetic Acid]",–,1.93,1.2,> 100,0.002
"Cc1[nH]c(/C=C2\C(=O)Nc3cc(-c4ccccc4)ccc32)c(C)c1C(=O)NCCN(C)C [Example 49, 2,4-Dimethyl-5-(2-oxo-6-phenyl-1,2-dihydroindol-3-ylidenemethyl)-1H-pyrrole-3-carboxylic Acid (2-dimethylaminoethyl)amide]",> 100,–,< 0.78,> 100,–
"CCN(CC)CCCNC(=O)c1[nH]c(/C=C2\C(=O)Nc3ccc(OC)cc32)cc1C [Example 15, 5-(5-Methoxy-2-oxo-1,2-dihydroindol-3-ylidenemethyl)-3-methyl-1H-pyrrole-2-carboxylic Acid (3-diethylamino-propyl)amide]",> 100,> 20,> 100,–,–
"COc1ccccc1-c1ccc2c(c1)NC(=O)/C2=C\c1[nH]c(C)c(C(=O)NCCN(C)C)c1-c1ccccc1 [Example 45, 5-[6-(2-Methoxyphenyl)-2-oxo-1,2-dihydroindol-3-ylidenemethyl]-2-methyl-4-phenyl-1H-pyrrole-3-carboxylic Acid (2-dimethylaminoethyl)amide]",> 100,–,> 100,> 100,–

# Continued, values first:
IC50 (EGFR (A431 cell lysate)) [µM],IC50 (GST-Flk1) [µM],IC50 [1] [µM],IC50 [2] [µM],IC50 (human cdk2/cyclin A) [µM],SMILES
> 100,> 20,> 100,–,–,"Cc1c(C(=O)NCCCN2CCOCC2)[nH]c(/C=C2\C(=O)Nc3ccc(Br)cc32)c1C(=O)c1ccccc1 [Example 22, 4-Benzoyl-5-(5-bromo-2-oxo-1,2-dihydroindol-3-ylidenemethyl)-3-methyl-1H-pyrrole-2-carboxylic Acid (3-morpholin-4-ylpropyl)amide]"
> 100,–,< 0.78,> 100,–,"Cc1[nH]c(/C=C2\C(=O)Nc3ccc(Cl)cc32)c(C)c1C(=O)NCCN(C)C [Example 50, 5-(5-Chloro-2-oxo-1,2-dihydroindol-3-ylidenemethyl)-2,4-dimethyl-1H-pyrrole-3-carboxylic Acid (2-dimethylamino-ethyl)amide]"
> 100,–,–,–,–,CCN(CC)CCNC(=O)c1c(C(C)C)[nH]c(/C=C2\C(=O)Nc3ccc(Br)cc32)c1C(C)C [Example 71]
–,> 50,> 100,–,–,"CC(=O)c1c(/C=C2\C(=O)Nc3ccc(Br)cc32)[nH]c(C(=O)NCCCN2CCOCC2)c1C [Example 31, 4-Acetyl-5-(5-bromo-2-oxo-1,2-dihydroindol-3-ylidenemethyl)-3-methyl-1H-pyrrole-2-carboxylic Acid (3-morpholin-4-ylpropyl)amide]"
–,–,> 100,–,–,"Cc1c(C(=O)NCCCN2CCCC2)[nH]c(/C=C2\C(=O)Nc3ccc(Br)cc32)c1C(=O)c1ccccc1 [Example 24, 4-Benzoyl-5-(5-bromo-2-oxo-1,2-dihydroindol-3-ylidenemethyl)-3-methyl-1H-pyrrole-2-carboxylic Acid (3-pyrrolidin-1-ylpropyl)amide]"
–,–,> 100,–,–,"Cc1cc(C(=O)NCCCN2CCCC2)[nH]c1/C=C1\C(=O)Nc2ccc(Br)cc21 [Example 6, 5-(5-Bromo-2-oxo-1,2-dihydroindol-3-ylidenemethyl)-4-methyl-1H-pyrrole-2-carboxylic Acid (3-pyrrolidin-1-yl-propyl)amide]"
–,–,> 100,–,–,"Cc1c(C(=O)NCCCN2CCCC2)[nH]c(/C=C2\C(=O)Nc3cc(-c4ccccc4)ccc32)c1C(=O)c1ccccc1 [Example 25, 4-Benzoyl-3-methyl-5-(2-oxo-6-phenyl-1,2-dihydroindol-3-ylidenemethyl)-1H-pyrrole-2-carboxylic Acid (3-pyrrolidin-1-ylpropyl)amide]"
> 100,–,–,> 100,–,"Cc1[nH]c(/C=C2\C(=O)Nc3ccc(S(=O)(=O)N(C)C)cc32)c(C)c1C(=O)NCCN1CCCC1 [Example 82, 5-(5-Dimethylsulfamoyl-2-oxo-1,2-dihydroindol-3-ylidenemethyl)-2,4-dimethyl-1H-pyrrole-3-carboxylic Acid (2-pyrrolidin-1-ylethyl)amide]"
–,–,–,–,> 20,"CCN(CC)CCCNC(=O)c1c(C)[nH]c(/C=C2\C(=O)Nc3ccc(Br)cc32)c1-c1ccccc1 [Example 47, 5-(5-Bromo-2-oxo-1,2-dihydroindol-3-ylidenemethyl)-2-methyl-4-phenyl-1H-pyrrole-3-carboxylic Acid (3-diethylaminopropyl)amide]"
